inhibition, MIC and Ratio data for 3 compounds are collected here from ChEMBL document CHEMBL2150945, “Synthesis and biological evaluation of novel piperazine derivatives of flavone as potent anti-inflammatory and antimicrobial agent” (2012).

SMILES strings stand for the structures. Values after ≈ are worked out from the molar mass of the structure shown.

Assay [1] deals with THP-1. Put plainly: Antiinflammatory activity in human PMA-activated THP1 cells assessed as inhibition of LPS-induced TNFalpha production at 10 uM incubated for 30 mins prior to LPS-challenge measured after 24 hrs by ELISA relative to control. In kind it is functional.
The subject of assay [2] is THP-1. As to the kind of experiment: Antiinflammatory activity in human PMA-activated THP1 cells assessed as inhibition of LPS-induced IL6 production at 10 uM incubated for 30 mins prior to LPS-challenge measured after 24 hrs by ELISA relative to control. The format is functional.
In assay [3] the test system is Staphylococcus aureus. As to the kind of experiment: Antibacterial activity against Staphylococcus aureus MTCC 96 after 24 hrs by modified agar well diffusion method. In kind it is functional. The following applies: MTCC 96, 24 h. A general note: Agar diffusion results depend on both activity and mobility in agar.
The subject of assay [4] is Bacillus subtilis. As to the kind of experiment: Antibacterial activity against Bacillus subtilis MTCC 441 after 24 hrs by modified agar well diffusion method. The format is functional. The following applies: MTCC 441, 24 h.
The subject of assay [5] is Escherichia coli. Put plainly: Antibacterial activity against Escherichia coli MTCC 443 after 24 hrs by modified agar well diffusion method. In kind it is functional. To be noted: MTCC 443, 24 h.
Assay [6] has as its system Salmonella typhimurium. Put plainly: Antibacterial activity against Salmonella typhimurium MTCC 98 after 24 hrs by modified agar well diffusion method. The format is functional, Salmonella enterica subsp. enterica serovar Typhimurium. The following applies: Salmonella enterica, MTCC 98, 24 h.
For assay [7], the system named is Candida albicans. As to the kind of experiment: Antifungal activity against Candida albicans MTCC 227 after 2 to 3 days by modified agar well diffusion method. In kind it is functional.
Assay [8] relates to Aspergillus niger. As to the kind of experiment: Antifungal activity against Aspergillus niger MTCC 281 after 2 to 3 days by modified agar well diffusion method. In kind it is functional.
Assay [9] deals with Fusarium solani. As to the kind of experiment: Antifungal activity against Fusarium solani MTCC 350 after 2 to 3 days by modified agar well diffusion method. The format is functional.
For assay [10], the system named is Aspergillus flavus. Put plainly: Antifungal activity against Aspergillus flavus MTCC 277 after 2 to 3 days by modified agar well diffusion method. In kind it is functional.
In assay [11] the test system is Staphylococcus aureus. As to the kind of experiment: Ratio of ciprofloxacin MIC to compound MIC for Staphylococcus aureus MTCC 96. The format is functional.
The test system of assay [12] is Bacillus subtilis. Put plainly: Ratio of ciprofloxacin MIC to compound MIC for Bacillus subtilis MTCC 441. In kind it is functional.
In assay [13] the test system is Escherichia coli. Put plainly: Ratio of ciprofloxacin MIC to compound MIC for Escherichia coli MTCC 443. The format is functional.
In assay [14] the test system is Salmonella typhimurium. Put plainly: Ratio of ciprofloxacin MIC to compound MIC for Salmonella typhimurium MTCC 98. In kind it is functional, Salmonella enterica subsp. enterica serovar Typhimurium.
Assay [15] relates to Candida albicans. As to the kind of experiment: Ratio of miconazole MIC to compound MIC for Candida albicans MTCC 227. The format is functional.
The test system of assay [16] is Aspergillus niger. As to the kind of experiment: Ratio of miconazole MIC to compound MIC for Aspergillus niger MTCC 281. In kind it is functional.
Assay [17] has as its system Fusarium solani. Put plainly: Ratio of miconazole MIC to compound MIC for Fusarium solani MTCC 350. In kind it is functional.
In assay [18] the test system is Aspergillus flavus. As to the kind of experiment: Ratio of miconazole MIC to compound MIC for Aspergillus flavus MTCC 277. The format is functional.
The subject of assay [19] is THP-1. As to the kind of experiment: Antiinflammatory activity in human PMA-activated THP1 cells assessed as inhibition of LPS-induced TNFalpha production at 1 uM incubated for 30 mins prior to LPS-challenge measured after 24 hrs by ELISA relative to control. In kind it is functional. In general terms: In an ELISA, binding on a coated surface is turned into a signal by an enzyme label.

For assay [20], the system named is THP-1. Put plainly: Antiinflammatory activity in human PMA-activated THP1 cells assessed as inhibition of LPS-induced IL6 production at 1 uM incubated for 30 mins prior to LPS-challenge measured after 24 hrs by ELISA relative to control. The format is functional.

In general, inhibition refers to the drop in the measured response relative to a control, in per cent. The MIC is the least concentration at which growth counts as inhibited. A higher MIC goes with a need for much substance. Consider `COc1cc(OC)c2c(=O)cc(CNC3CCN(Cc4ccccc4)CC3)oc2c1`, for which the inhibition at 10 µM in the assay with THP-1 [1] was 20%; in the assay on THP-1 [2], 35%. Further, the MIC against Staphylococcus aureus [3] is 10 µg/mL (≈ 24.5 µM); in the assay with Bacillus subtilis [4], 10 µg/mL (≈ 24.5 µM); against Escherichia coli [5] it was 10 µg/mL (≈ 24.5 µM); in the assay on Salmonella typhimurium [6], 15 µg/mL (≈ 36.7 µM); in the assay on Candida albicans [7], 10 µg/mL (≈ 24.5 µM); in the assay with Aspergillus niger [8] it was 10 µg/mL (≈ 24.5 µM). Further, the MIC worked out at 15 µg/mL (≈ 36.7 µM) against Fusarium solani [9] and 10 µg/mL (≈ 24.5 µM) against Aspergillus flavus [10]. Further, the Ratio with Staphylococcus aureus [11], in the assay with Bacillus subtilis [12], in the assay on Escherichia coli [13], in the assay on Salmonella typhimurium [14], with Candida albicans [15] and in the assay with Aspergillus niger [16] was 2 throughout. Also, the Ratio with Fusarium solani [17] and with Aspergillus flavus [18] was 2 in each case.

In the case of `COc1ccc2oc(NC3CCN(Cc4ccccc4)CC3)cc(=O)c2c1`, the inhibition at 10 µM in the assay on THP-1 [1] worked out at 10%; with THP-1 [2], 15%. Moreover, the MIC in the assay on Staphylococcus aureus [3] came to 10 µg/mL (≈ 27.4 µM); against Bacillus subtilis [4], 10 µg/mL (≈ 27.4 µM); with Escherichia coli [5], 10 µg/mL (≈ 27.4 µM); with Salmonella typhimurium [6], 10 µg/mL (≈ 27.4 µM); in the assay on Candida albicans [7], 15 µg/mL (≈ 41.2 µM); against Aspergillus niger [8], 10 µg/mL (≈ 27.4 µM). In addition, the MIC with Fusarium solani [9] amounted to 10 µg/mL (≈ 27.4 µM); against Aspergillus flavus [10], 15 µg/mL (≈ 41.2 µM). Further, the Ratio in the assay with Staphylococcus aureus [11], in the assay on Bacillus subtilis [12], in the assay on Escherichia coli [13], in the assay on Salmonella typhimurium [14], with Candida albicans [15] and in the assay with Aspergillus niger [16] was 2 throughout. The Ratio with Fusarium solani [17] and in the assay on Aspergillus flavus [18] was 2 throughout.

`C[C@@H]1C[C@H]2[C@@H]3CCC4=CC(=O)C=C[C@]4(C)[C@@]3(F)[C@@H](O)C[C@]2(C)[C@@]1(O)C(=O)CO` [DEXAMETHASONE]: the inhibition at 1 µM in the assay with THP-1 [19] turned out to be 71%; in the assay on THP-1 [20], 84%.
